Data set [1] can be described thus: In vitro dry powder inhaler deposition, Andersen Cascade Impactor. Here is the method: The pulmonary deposition of the dry powders was investigated using an Andersen Cascade Impactor (ACI) (1 ACFM Eight Stage Non-Viable Cascade Impactor, Graseby Andersen, Atlanta, Ga.). […] Size 3 hard gelatin capsules (Farillon Ltd., U.K.) were filled to approximately 50% with the dry powder (approximately 25 mg of powder). […] The amount of powder deposited on each stage of the impactor was determined by weight, UV analysis or HPLC analysis.

Data set [2] in a line: Suspension sedimentation analysis (water/Tween 80). It is filed as physicochemical. Particulars: water/Tween 80 (96:4 v/v). On the procedure: Sedimentation analysis was carried out on suspensions of bendroflumethiazide (BFMT) and sulfadimidine. 25 ml suspensions were prepared by mixing water and Tween 80 (96:4 v/v) with 150 mg of the drug powder. The suspensions were transferred to 25 ml graduated cylinders, mixed thoroughly and their sedimentation observed over time.

Data set [3] is described as follows: Density measurements (bulk, tap, Carr's compressibility index). The format is physicochemical. Here is the method: Dublin 12) with a funnel. The weight of the powder required to fill the 1 ml graduated syringe was recorded to calculate bρ. […] The resultant volume was recorded [NT]ρ. Each measurement was performed in triplicate. The Carr's compressibility index of some of the systems was calculated from the following equation: compressibility index(%)=[(tap density-bulk density)/tap density]×100 Lower values of the index are desirable as they indicate better flow.

Data set [4] is described as follows: Suspension stability of MDI systems in HFA-134a. It is filed as physicochemical. The conditions noted are these: BFMT in HFA-134a. On the procedure:
In order to prepare metered dose inhalers, 20 mg of powder was weighed into glass vials. Afterwards a 25 μl metering valve (Bespak, UK) was crimped onto the glass vial and the liquid propellant HFA-134a was added through the nozzle. The final weight of each MDI (without the container and metering valve) was 10 g. The last two steps were performed using a Pamasol P 2016 aerosol filling station (Pamasol Willi Mader AG, Pfäffikon, Switzerland). Prepared MDIs were homogenised in a Bransonic 220 ultrasonic bath (UK) for 1 min.

Bounds are passed on as bounds.

Regarding `Cc1cc(C)nc(NS(=O)(=O)c2ccc(N)cc2)n1` [Micronised sulfadimidine, sulfadimidine], the “mass median aerodynamic diameter (MMAD)” value in data set [1] is on record as 14.4±4.9 μm. The “time to completely settle in suspension” value in data set [2] was at most 30 min. Also, the compressibility index in data set [3] (Carr's index from tap and bulk density) is on record as 50.3%.

Turning to `NS(=O)(=O)c1cc2c(cc1C(F)(F)F)NC(Cc1ccccc1)NS2(=O)=O` (stereo not shown) [raw BFMT, bendroflumethiazide], the “sedimentation of powder particles in suspension (observation)” value in data set [2] (observed up to four hours) is listed as “completely settle in a matter of seconds”. The “sedimentation in MDI after 4 hours” value in data set [4] (4 hours) is on record as “noticeable sedimentation”. The “sedimentation in MDI after seven days” value in data set [4] (7 days) is recorded as “completely settled”. In data set [3], this molecule had a bulk density of 0.29 g/mL and a tap density of 0.58 g/mL.

For the molecule `O=C(O)c1cc(=O)c2c(OCC(O)COc3cccc4oc(C(=O)O)cc(=O)c34)cccc2o1` [sodium cromoglycate], in data set [3], the bulk density stood at 0.341 ± 0.024 g/mL and the tap density turned out to be 0.661 ± 0.023 g/mL.
